Experimental data as given in publication PMC7377239, “Cardiovascular Effects of Polychlorinated Biphenyls and Their Major Metabolites” (Environmental Health Perspectives, 2020).
Where a name gives a salt, the structure may show the parent alone. Read-outs that look alike come from different tables or passages of the source.

Experiments:
HUVECs = test: High-content imaging cytotoxicity in HUVECs, 24 h; format: cell-based, human; details: Homo sapiens, HUVEC, 24 h, HUVEC, 24 hr
How it was run: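 Point-of-departure values derive from four-parameter logistic fits of vehicle-normalized imaging phenotypes (Hoechst 33342, MitoTracker Orange, calcein AM). The fits follow 24 h exposure of HUVEC monolayers at 37°C and 5% CO2, with a top tested concentration of 100μM.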

[1] = test system: iCell cardiomyocytes (human iPSC-derived cardiomyocytes); test: High-content imaging of cytotoxicity and mitochondrial integrity in iPSC-CMs; format: cell-based; details: Homo sapiens, Cardiomyocyte, cardiomyocytes (cm)
How it was run: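 Readouts from high-content images were normalized to vehicle controls containing 0.5% vol/vol DMSO. They were fit to a four-parameter logistic model in R. Points of departure were set using a cutoff of one standard deviation across vehicle control means. Where no concentration–response was seen, the top tested concentration of 100μM was assigned as the no observable adverse effect level.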

[2] = cyto, read-out: POD huvec.cyto.24hr
[3] = mito, read-out: POD huvec.mito.24hr
[4] = mitoint, read-out: POD huvec.mitoint.24hr
[5] = nma, read-out: POD huvec.nma.24hr
[6] = tc, read-out: POD huvec.tc.24hr
[7] = 1.5 h, cam, 90 min, read-out: POD cm.cam.90min
[8] = 1.5 h, mii, 90 min, read-out: POD cm.mii.90min
[9] = 1.5 h, mito, 90 min, read-out: POD cm.mito.90min
[10] = 1.5 h, tc, 90 min, read-out: POD cm.tc.90min
[11] = 24 h, cam, 24 hrs, read-out: POD cm.cam.24hrs
[12] = 24 h, mii, 24 hrs, read-out: POD cm.mii.24hrs
[13] = 24 h, mito, 24 hrs, read-out: POD cm.mito.24hrs
[14] = 24 h, tc, 24 hrs, read-out: POD cm.tc.24hrs

SMILES	minimal effective concentration (HUVECs; [2])	minimal effective concentration (HUVECs; [3])	minimal effective concentration (HUVECs; [4])	minimal effective concentration (HUVECs; [5])	minimal effective concentration (HUVECs; [6])	minimal effective concentration [1, 7]	minimal effective concentration [1, 8]	minimal effective concentration [1, 9]	minimal effective concentration [1, 10]	minimal effective concentration [1, 11]	minimal effective concentration [1, 12]	minimal effective concentration [1, 13]	minimal effective concentration [1, 14]
O=S(=O)(O)Oc1cccc(-c2ccc(Cl)cc2)c1 [3'-PCB 3 sulfate]	100 µM	100 µM	100 µM	100 µM	100 µM	100 µM	89.9 µM	100 µM	100 µM	100 µM	100 µM	100 µM	100 µM
Clc1cccc(-c2cccc(Cl)c2)c1 [PCB 11, 3,3′-Dichlorobiphenyl]	11.2 µM	9.68 µM	7.62 µM	9.3 µM	11.2 µM	18.6 µM	12.4 µM	14.2 µM	16.7 µM	35.2 µM	9.6 µM	33.1 µM	35.1 µM
Clc1ccc(Cl)c(-c2c(Cl)ccc(Cl)c2Cl)c1 [PCB 95, 2,2′,3,5′,6-pentachlorobiphenyl]	0.01 µM	0.022 µM	7.41 µM	1.93 µM	0.01 µM	36.6 µM	100 µM	39.6 µM	38.7 µM	8.98 µM	22.2 µM	8.96 µM	8.75 µM
